Consider six substances from patent US20250041367A1, “BACTERIOPHAGES AND USE THEREOF FOR THE TREATMENT OR PREVENTION OF INFECTION CAUSED BY E. COLI” (Purdue Research Foundation, priority 2023, published 2025).

Data set [1] concerns E. coli serotype O2:H6 (APEC). Briefly: Host range spot assay. The format is cell-based, Escherichia coli. As to conditions: E. coli serotype O2:H6, scale 0-3. As for the experimental part:
(§1) The host range of each bacteriophage type was determined by performing spot assays using each of the ten distinct APEC serotypes mentioned above. Spot assays were performed as known in the art (Barrow et al., 1998, Clinical and Diagnostic Laboratory Immunology, 5 (3), 294-298). 100 μL aliquots of log-phase bacterial cultures were combined with 67.5 μL 1M CaCl2) and 4 mL LB overlay, mixed briefly, and poured over LB agar plates. Once the overlay had solidified, 5 μL aliquots of individual phage types were applied (i.e., spotted) onto the plates, and plates were incubated at 37° C. overnight. Plates were assessed for clearings the following day and the degree of lysis was measured using a four-point scale in which 0 indicated no lysis, 1.0 indicated some lysis, 2.0 indicated moderate lysis, and 3 indicated complete lysis. Spot assays were conducted in triplicate for each phage and APEC strain.

A short description of data set [2]: Phage release from microcapsules in SIF after SGF. It is filed as physicochemical. As to conditions: encapsulated phage; for phages released from their microcapsules: 1 hour SGF then 1 hour in SIF; for concentration of released phages: 1 hour SGF then 1 hour of incubation in SIF. As for the experimental part: The extent to which phages were released from microcapsules in the intestinal environment was investigated by incubating encapsulated phages first in SGF and then in SIF. 0.5 g of microencapsulated phages (microcapsules) was added to 4.5 mL SGF in duplicate tube sets and incubated at 41° C. for 1 hour with shaking. SGF was then carefully removed via pipetting and microcapsules were combined with either 4.5 mL of SIF or 4.5 mL 1×PBS and incubated at 41° C. with shaking. Aliquots (100 μL) were collected from each sample at 1, 2, and 3 hours following exposure to SIF. The concentrations of released phages in these aliquots were determined using standard plaque assays with phages' respective host APEC serotypes. The experiment was conducted in triplicate with each phage type.

The nature of data set [3]: Encapsulation efficiency in sodium alginate microcapsules (plaque assay). It is filed as physicochemical. The arrangement: Pre-encapsulation phage concentration / Concentration of phages in microcapsules: unit not given here. As to conditions: for Pre-encapsulation phage concentration: before encapsulation; for Pre-encapsulation phage concentration / Concentration of phages in microcapsules: plaque assay; for Encapsulation efficiency: encapsulated / pre-encapsulation phage concentration; for Concentration of phages in microcapsules: sodium alginate microcapsules dissolved. The method, then:
Bacteriophages were microencapsulated within sodium alginate microcapsules as well-known in the art with some modifications (Krasaekoopt et al., 2004, International Dairy Journal, 14 (8), 737-743). In short, sodium alginate (4 g) was mixed with 400 mL of a bacteriophage filtrate to make a 1% (w/v) suspension. This suspension was allowed to gel at room temperature for 4 hours and was then processed through a Buchi Encapsulator-B395 set at 200 Hz (frequency) and 1000V (electrode) with an aperture of 0.3 mm. The resulting microcapsules were collected in a beaker containing a hardening solution (100 mM CaCl2)) with continuous stirring to avoid clumping of microcapsules. Microcapsules were allowed to sit in the 100 mM CaCl2) solution to harden for 30 minutes and were then washed three times with SM buffer. Washed microcapsules were stored in SM buffer in 50 ml conical tubes at 4° C. until further use. Each of the six phage types was individually microencapsulated in this manner.
To assess the efficiency of microencapsulation, the concentrations of microencapsulated phages were compared to pre-encapsulation concentrations as well-known in the art (Yongsheng et al., 2008, Applied and Environmental Microbiology, 74 (15), 4799). To determine bacteriophage concentrations in microcapsules, microcapsules (0.5 g) were dried by contact with filter paper and then dissolved in 4.5 mL of dissolving solution (50 mM sodium citrate, 0.2M sodium bicarbonate, and 50 mM Tris-HCl; pH 7.5). Bacteriophage concentrations were then quantified by standard plaque assay as described previously. Encapsulation efficiency (EE %) was calculated as:
EE %=encapsulated phage concentration/pre-encapsulation phage concentration

The subject of data set [4] is E. coli serotype O78:H9 (APEC). In words: Host range spot assay. The format is cell-based, Escherichia coli. The arrangement: key: — indicates no lysis at all; 0.1-1.0 indicates that the phage is semi-lytic; 1.1-2.0 indicates moderate lysis of bacteria; 2.1-3.0 indicates complete lysis of bacteria and formation of a transparent, circular clearing on the bacterial lawn. The settings on record: E. coli serotype O78:H9, scale 0-3. As for the experimental part: as §1

The test system of data set [5] is E. coli serotype O5 (APEC). Briefly: Host range spot assay. As to conditions: E. coli serotype O5, scale 0-3. It is filed as cell-based, Escherichia coli. The arrangement: key: — indicates no lysis at all; 0.1-1.0 indicates that the phage is semi-lytic; 1.1-2.0 indicates moderate lysis of bacteria; 2.1-3.0 indicates complete lysis of bacteria and formation of a transparent, circular clearing on the bacterial lawn. The method, then:
as §1

The subject of data set [6] is E. coli serotype O2 (APEC). Briefly: Host range spot assay. The format is cell-based, Escherichia coli. Also noted: key: — indicates no lysis at all; 0.1-1.0 indicates that the phage is semi-lytic; 1.1-2.0 indicates moderate lysis of bacteria; 2.1-3.0 indicates complete lysis of bacteria and formation of a transparent, circular clearing on the bacterial lawn. The settings on record: E. coli serotype O2, scale 0-3. As for the experimental part:
as §1

For data set [7], the system named is E. coli serotype O1:H23 (APEC). In words: Host range spot assay. It is filed as cell-based, Escherichia coli. As to conditions: E. coli serotype O1:H23, scale 0-3. The arrangement: key: — indicates no lysis at all; 0.1-1.0 indicates that the phage is semi-lytic; 1.1-2.0 indicates moderate lysis of bacteria; 2.1-3.0 indicates complete lysis of bacteria and formation of a transparent, circular clearing on the bacterial lawn. The method, then: as §1

Data set [8] deals with E. coli serotype O6:H31 (APEC). In words: Host range spot assay. The format is cell-based, Escherichia coli. Also noted: key: — indicates no lysis at all; 0.1-1.0 indicates that the phage is semi-lytic; 1.1-2.0 indicates moderate lysis of bacteria; 2.1-3.0 indicates complete lysis of bacteria and formation of a transparent, circular clearing on the bacterial lawn. The settings on record: E. coli serotype O6:H31, scale 0-3. The method, then:
as §1

Data set [9] deals with E. coli serotype O78:H51 (APEC). In words: Host range spot assay. As to conditions: E. coli serotype O78:H51, scale 0-3. The arrangement: key: — indicates no lysis at all; 0.1-1.0 indicates that the phage is semi-lytic; 1.1-2.0 indicates moderate lysis of bacteria; 2.1-3.0 indicates complete lysis of bacteria and formation of a transparent, circular clearing on the bacterial lawn. It is filed as cell-based, Escherichia coli. The method, then:
as §1

Data set [10] relates to E. coli serotype O78 (APEC). Briefly: Host range spot assay. It is filed as cell-based, Escherichia coli. Also noted: key: — indicates no lysis at all; 0.1-1.0 indicates that the phage is semi-lytic; 1.1-2.0 indicates moderate lysis of bacteria; 2.1-3.0 indicates complete lysis of bacteria and formation of a transparent, circular clearing on the bacterial lawn. As to conditions: E. coli serotype O78, scale 0-3. As for the experimental part:
as §1

In data set [11] the test system is ten APEC strains. Briefly: Host range (lytic spectrum) over all ten APEC strains, spot assays. It is filed as cell-based, Escherichia coli. As to conditions: for number of different APEC strains lysed: of ten APEC strains; for degree of lysis against the APEC strains lysed: over the strains that the phage lyses, scale 0-3. The method, then: as §1

As to Escherichia phage vB_Eco_AHC, the degree of lysis in data set [1] is 2.0; in data set [4], “—”; in data set [5], 1.7; in [6], 3.0; in [7] it was 1.0; in data set [8], 2.7. Besides, the degree of lysis was found to be 1.0 in data set [9] and 1.7 in data set [10]. In data set [2], the “phages released from their microcapsules” value worked out at 95.8%. Also, the “concentration of released phages” value in data set [2] stood at 7.99 log10 PFU/mL. Besides, in data set [3], the Pre-encapsulation phage concentration is 8.9 ± 0.1. The substance further came in with an Encapsulation efficiency in data set [3] of 94.4%. Moreover, in data set [3], the “Concentration of phages in microcapsules” value stood at 8.4 ± 0.2. Further, the “number of different APEC strains lysed” value in [11] is “six and at least two”.
Regarding Escherichia phage vB_Eco_MP_1 [MP1], the degree of lysis in data set [1] is on record as 2.7; in data set [4], “—”; in data set [5], “—”; in data set [6], “—”; in data set [7], “—”; in [8], “—”. In addition, the degree of lysis entry in data set [9] and in data set [10] was “—” throughout. Further, the “phages released from their microcapsules” value in data set [2] is 96.5%. Moreover, the “concentration of released phages” value in data set [2] is reported as 8.94 log10 PFU/mL. For the same substance, in data set [3], the Pre-encapsulation phage concentration turned out to be 9.3 ± 0.2. Further, the Encapsulation efficiency in [3] is 98.9%. The “Concentration of phages in microcapsules” value in data set [3] is on record as 9.2 ± 0.2. Also, the “number of different APEC strains lysed” value in data set [11] is “two and at least two”. Moreover, the “degree of lysis against the APEC strains lysed” value in data set [11] was 2.7.
Regarding Escherichia phage vB_Eco_AKA, the degree of lysis in [1] is on record as 1.7; in [4] it was “—”; in data set [5], 1.7; in [6], 2.7; in [7] it was 1.0; in data set [8] it was 3.0. The degree of lysis in data set [9] is on record as 1.0; in data set [10], 1.3. Besides, the “phages released from their microcapsules” value in [2] was 94.4%. The “concentration of released phages” value in data set [2] is 7.99 log10 PFU/mL. The same substance gave a Pre-encapsulation phage concentration in data set [3] of 8.6 ± 0.2. This substance came in with an Encapsulation efficiency in data set [3] of 98.8%. Moreover, in data set [3], the “Concentration of phages in microcapsules” value was 8.5 ± 0.1. In addition, in [11], the “number of different APEC strains lysed” value was “six and at least two”.
Consider Escherichia phage vB_Eco_AHP, for which the degree of lysis was 2.7 in data set [1]; “—” in data set [4]; “—” in data set [5]; “—” in [6]; 3.0 in data set [7]; 3.0 in data set [8]. For the same substance, the degree of lysis entry in [9] and in data set [10] was “—” each time. Further, the “phages released from their microcapsules” value in data set [2] was determined as 97.4%. Also, the “concentration of released phages” value in [2] was 9.14 log10 PFU/mL. In addition, the Pre-encapsulation phage concentration in data set [3] is reported as 9.6 ± 0.1. The same substance yielded an Encapsulation efficiency in [3] of 97.9%. The “Concentration of phages in microcapsules” value in data set [3] worked out at 9.4 ± 0.1. In addition, the “number of different APEC strains lysed” value in [11] is “four and at least two”. Also, in data set [11], the “degree of lysis against the APEC strains lysed” value is listed as 2.7-3.0.
With Escherichia phage vB_Eco_MP_2 [MP2], the degree of lysis was 3.0 in data set [1]; “—” in data set [4]; “—” in data set [5]; “—” in data set [6]; “—” in data set [7]; “—” in [8]. Also, the degree of lysis entry in data set [9] and in data set [10] was “—” each time. The “phages released from their microcapsules” value in data set [2] is reported as 95.4%. Moreover, the “concentration of released phages” value in data set [2] is given as 8.88 log10 PFU/mL. This substance also showed a Pre-encapsulation phage concentration in data set [3] of 9.4 ± 0.1. For the same substance, the Encapsulation efficiency in data set [3] stood at 98.9%. Moreover, the “Concentration of phages in microcapsules” value in data set [3] was found to be 9.3 ± 0.2. Moreover, in data set [11], the “number of different APEC strains lysed” value is “two and at least two”. In addition, the “degree of lysis against the APEC strains lysed” value in [11] turned out to be 3.0.
Escherichia phage vB_Eco_MIA: the degree of lysis is recorded as 2.3 in data set [1]; “—” in [4]; 1.7 in data set [5]; 3.0 in data set [6]; 1.0 in [7]; 2.7 in data set [8]. Moreover, the degree of lysis in [9] is on record as 1.0; in data set [10], 2.0. For the same substance, the “phages released from their microcapsules” value in [2] was 94.7%. Moreover, the “concentration of released phages” value in [2] was 8.05 log10 PFU/mL. Further, in data set [3], the Pre-encapsulation phage concentration worked out at 8.9 ± 0.1. Also, the Encapsulation efficiency in data set [3] was determined as 95.5%. Besides, in data set [3], the “Concentration of phages in microcapsules” value was determined as 8.5 ± 0.1. The “number of different APEC strains lysed” value in data set [11] was “six and at least two”.
